Source: ChEMBL document CHEMBL1201862, “PubChem BioAssay data set” (2004)
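1) Cells in 96-well plates. 2) Compound, 48 h, 5 concentrations. 3) Linear interpolation between surrounding doses. 4) Unreached endpoint = highest concentration. GI50 = concentration required for 50% inhibition of growth.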 The source made the active and inactive calls. Cut-off read from the data, not from the text of the source: active = GI50 up to about 1.1 µM and inactive = higher.

Columns and labels:
Assay in all cases: inhibition of tumour cell growth, NCI panel, 48 h
786-0 = test system: 786-0
A498 = test system: A498
A549 = test system: A549
ACHN = test system: ACHN
BT-549 = test system: BT-549
CAKI-1 = test system: CAKI-1
CCRF-CEM = test system: CCRF-CEM
COLO 205 = test system: COLO 205
DU-145 = test system: DU-145
EKVX = test system: EKVX
HCC 2998 = test system: HCC 2998
HCT-116 = test system: HCT-116
HCT-15 = test system: HCT-15
HL-60 = test system: HL-60
HOP-62 = test system: HOP-62
HOP-92 = test system: HOP-92
HT-29 = test system: HT-29
Hs-578T = test system: Hs-578T
IGROV-1 = test system: IGROV-1
K562 = test system: K562
KM12 = test system: KM12
LOX IMVI = test system: LOX IMVI
M14 = test system: M14
MCF7 = test system: MCF7
MDA-MB-231 = test system: MDA-MB-231
MDA-MB-435 = test system: MDA-MB-435
MDA-N = test system: MDA-N
MOLT-4 = test system: MOLT-4
NCI-H23 = test system: NCI-H23
NCI-H460 = test system: NCI-H460
NCI/ADR-RES = test system: NCI/ADR-RES
OVCAR-3 = test system: OVCAR-3
OVCAR-4 = test system: OVCAR-4
OVCAR-5 = test system: OVCAR-5
PC-3 = test system: PC-3
RPMI-8226 = test system: RPMI-8226
RXF 393 = test system: RXF 393
SF-268 = test system: SF-268
SF-295 = test system: SF-295
SF-539 = test system: SF-539
SK-MEL-28 = test system: SK-MEL-28
SK-MEL-2 = test system: SK-MEL-2
SK-MEL-5 = test system: SK-MEL-5
SK-OV-3 = test system: SK-OV-3
SN12C = test system: SN12C
SNB-19 = test system: SNB-19
SNB-75 = test system: SNB-75
SR = test system: SR
SW-620 = test system: SW-620
T47D = test system: T47D
TK-10 = test system: TK-10
U-251 = test system: U-251
UACC-257 = test system: UACC-257
UACC-62 = test system: UACC-62
UO-31 = test system: UO-31
Malme-3M = test system: Malme-3M
NCI-H226 = test system: NCI-H226
NCI-H522 = test system: NCI-H522
OVCAR-8 = test system: OVCAR-8

For `c1ccc2c(c1)nc1n2CCSC1`, the GI50 (786-0) was > 100 µM (inactive), the GI50 (A498) was > 100 µM (inactive) and the GI50 (A549) was > 100 µM (inactive). The GI50 (ACHN) was > 100 µM (inactive), the GI50 (BT-549) was > 100 µM (inactive) and the GI50 (CAKI-1) was > 100 µM (inactive). For the same molecule, the GI50 (CCRF-CEM) was > 100 µM (inactive), the GI50 (COLO 205) was > 100 µM (inactive) and the GI50 (DU-145) was > 100 µM (inactive). For the same molecule, the GI50 (EKVX) was > 100 µM (inactive), the GI50 (HCC 2998) was > 100 µM (inactive) and the GI50 (HCT-116) was > 100 µM (inactive). The GI50 (HCT-15) was over 100 µM, the GI50 (HL-60) was > 100 µM (inactive) and the GI50 (HOP-62) was > 100 µM (inactive). For the same molecule, the GI50 (HOP-92) was > 100 µM (inactive), the GI50 (HT-29) was > 100 µM (inactive) and the GI50 (Hs-578T) was > 100 µM (inactive). For the same molecule, the GI50 (IGROV-1) was 74.8 µM (inactive), the GI50 (K562) was > 100 µM (inactive) and the GI50 (KM12) was > 100 µM (inactive). The GI50 (LOX IMVI) was > 100 µM (inactive), the GI50 (M14) was > 100 µM (inactive) and the GI50 (MCF7) was > 100 µM (inactive). The GI50 (MDA-MB-231) was > 100 µM (inactive), the GI50 (MDA-MB-435) was > 100 µM (inactive) and the GI50 (MDA-N) was > 100 µM (inactive). For the same molecule, the GI50 (MOLT-4) was > 100 µM (inactive), the GI50 (NCI-H23) was > 100 µM (inactive) and the GI50 (NCI-H460) was > 100 µM (inactive). The GI50 (NCI/ADR-RES) was > 100 µM (inactive), the GI50 (OVCAR-3) was > 100 µM (inactive) and the GI50 (OVCAR-4) was > 100 µM (inactive). For the same molecule, the GI50 (OVCAR-5) was > 100 µM (inactive), the GI50 (PC-3) was > 100 µM (inactive) and the GI50 (RPMI-8226) was > 100 µM (inactive). For the same molecule, the GI50 (RXF 393) was > 100 µM (inactive), the GI50 (SF-268) was > 100 µM (inactive) and the GI50 (SF-295) was > 100 µM (inactive). The GI50 (SF-539) was > 100 µM (inactive), the GI50 (SK-MEL-28) was > 100 µM (inactive) and the GI50 (SK-MEL-2) was > 100 µM (inactive). The GI50 (SK-MEL-5) was > 100 µM (inactive), the GI50 (SK-OV-3) was > 100 µM (inactive) and the GI50 (SN12C) was > 100 µM (inactive). The GI50 (SNB-19) was > 100 µM (inactive), the GI50 (SNB-75) was > 100 µM (inactive) and the GI50 (SR) was > 100 µM (inactive). For the same molecule, the GI50 (SW-620) was > 100 µM (inactive), the GI50 (T47D) was > 100 µM (inactive) and the GI50 (TK-10) was > 100 µM (inactive). For the same molecule, the GI50 (U-251) was > 100 µM (inactive), the GI50 (UACC-257) was > 100 µM (inactive) and the GI50 (UACC-62) was > 100 µM (inactive). The GI50 (UO-31) was > 100 µM (inactive).
`C=C(C)[C@H]1C2=CC(C)=C(O2)[C@@H](O[C@@H]2c3oc(cc3C)[C@H](C(=C)C)[C@H]3C=C(CC[C@H]2C(=C)C)C(=O)O3)[C@H](C(=C)C)CCC2=C[C@H]1OC2=O` was tested, and the GI50 (786-0) was > 100 µM (inactive), the GI50 (A498) was > 100 µM (inactive) and the GI50 (A549) was > 100 µM (inactive). The GI50 (ACHN) was > 100 µM (inactive), the GI50 (BT-549) was > 100 µM (inactive) and the GI50 (CAKI-1) was > 100 µM (inactive). For the same molecule, the GI50 (CCRF-CEM) was > 100 µM (inactive), the GI50 (COLO 205) was > 100 µM (inactive) and the GI50 (DU-145) was > 100 µM (inactive). For the same molecule, the GI50 (EKVX) was > 100 µM (inactive), the GI50 (HCC 2998) was > 100 µM (inactive) and the GI50 (HCT-116) was > 100 µM (inactive). For the same molecule, the GI50 (HCT-15) was over 100 µM, the GI50 (HL-60) was > 100 µM (inactive) and the GI50 (HOP-62) was 81.1 µM (inactive). For the same molecule, the GI50 (HOP-92) was > 100 µM (inactive), the GI50 (Hs-578T) was > 100 µM (inactive) and the GI50 (IGROV-1) was > 100 µM (inactive). For the same molecule, the GI50 (K562) was > 100 µM (inactive), the GI50 (KM12) was > 100 µM (inactive) and the GI50 (LOX IMVI) was > 100 µM (inactive). The GI50 (M14) was > 100 µM (inactive), the GI50 (MCF7) was > 100 µM (inactive) and the GI50 (MDA-MB-231) was > 100 µM (inactive). For the same molecule, the GI50 (MDA-MB-435) was > 100 µM (inactive), the GI50 (MDA-N) was > 100 µM (inactive) and the GI50 (MOLT-4) was > 100 µM (inactive). The GI50 (Malme-3M) was > 100 µM (inactive), the GI50 (NCI-H226) was > 100 µM (inactive) and the GI50 (NCI-H23) was > 100 µM (inactive). The GI50 (NCI-H460) was > 100 µM (inactive), the GI50 (NCI-H522) was > 100 µM (inactive) and the GI50 (NCI/ADR-RES) was > 100 µM (inactive). The GI50 (OVCAR-3) was > 100 µM (inactive), the GI50 (OVCAR-4) was > 100 µM (inactive) and the GI50 (OVCAR-5) was > 100 µM (inactive). The GI50 (OVCAR-8) was > 100 µM (inactive), the GI50 (PC-3) was > 100 µM (inactive) and the GI50 (RPMI-8226) was > 100 µM (inactive). For the same molecule, the GI50 (SF-268) was > 100 µM (inactive), the GI50 (SF-295) was > 100 µM (inactive) and the GI50 (SK-MEL-28) was > 100 µM (inactive). The GI50 (SK-MEL-2) was > 100 µM (inactive), the GI50 (SK-MEL-5) was > 100 µM (inactive) and the GI50 (SK-OV-3) was > 100 µM (inactive). The GI50 (SN12C) was > 100 µM (inactive), the GI50 (SNB-19) was > 100 µM (inactive) and the GI50 (SNB-75) was > 100 µM (inactive). For the same molecule, the GI50 (SR) was > 100 µM (inactive), the GI50 (SW-620) was > 100 µM (inactive) and the GI50 (T47D) was > 100 µM (inactive). For the same molecule, the GI50 (TK-10) was > 100 µM (inactive), the GI50 (U-251) was > 100 µM (inactive) and the GI50 (UACC-257) was > 100 µM (inactive). The GI50 (UACC-62) was > 100 µM (inactive) and the GI50 (UO-31) was > 100 µM (inactive).
In the case of `CCn1c(-c2ccc(OC(C)=O)cc2)c(C)c2cc(OC(C)=O)ccc21` [ZINDOXIFENE], the GI50 (786-0) was 21.9 µM (inactive), the GI50 (A498) was 23.6 µM (inactive) and the GI50 (A549) was 15.4 µM (inactive). For the same molecule, the GI50 (ACHN) was 19.4 µM (inactive), the GI50 (BT-549) was 29.4 µM (inactive) and the GI50 (CAKI-1) was 24.3 µM (inactive). The GI50 (CCRF-CEM) was 23.3 µM (inactive), the GI50 (COLO 205) was 21.7 µM (inactive) and the GI50 (DU-145) was 18.5 µM (inactive). For the same molecule, the GI50 (EKVX) was 17.9 µM (inactive), the GI50 (HCT-116) was 6.84 µM (inactive) and the GI50 (HCT-15) was 3.79 µM. The GI50 (HL-60) was 11 µM (inactive), the GI50 (HOP-62) was 21.3 µM (inactive) and the GI50 (HOP-92) was 30.1 µM (inactive). The GI50 (HT-29) was 29.5 µM (inactive), the GI50 (Hs-578T) was 13.9 µM (inactive) and the GI50 (IGROV-1) was 24 µM (inactive). The GI50 (K562) was 11.8 µM (inactive), the GI50 (KM12) was 12.9 µM (inactive) and the GI50 (LOX IMVI) was 11.9 µM (inactive). The GI50 (M14) was 18.1 µM (inactive), the GI50 (MCF7) was 18 µM (inactive) and the GI50 (MDA-MB-231) was 14.6 µM (inactive). The GI50 (MDA-MB-435) was 12.5 µM (inactive), the GI50 (MDA-N) was 17.3 µM (inactive) and the GI50 (MOLT-4) was 8.49 µM (inactive). The GI50 (Malme-3M) was 21.7 µM (inactive), the GI50 (NCI-H226) was 30.1 µM (inactive) and the GI50 (NCI-H23) was 24.1 µM (inactive). The GI50 (NCI-H460) was 6.04 µM (inactive), the GI50 (NCI-H522) was 17.4 µM (inactive) and the GI50 (NCI/ADR-RES) was 24.9 µM (inactive). The GI50 (OVCAR-3) was 16.7 µM (inactive), the GI50 (OVCAR-4) was 18.1 µM (inactive) and the GI50 (OVCAR-5) was 24.9 µM (inactive). The GI50 (OVCAR-8) was 20 µM (inactive), the GI50 (PC-3) was 13.7 µM (inactive) and the GI50 (RPMI-8226) was 12.5 µM (inactive). The GI50 (RXF 393) was 6.82 µM (inactive), the GI50 (SF-268) was 16.6 µM (inactive) and the GI50 (SF-295) was 24 µM (inactive). The GI50 (SF-539) was 15.8 µM (inactive), the GI50 (SK-MEL-28) was 16.5 µM (inactive) and the GI50 (SK-MEL-2) was 18.5 µM (inactive). The GI50 (SK-MEL-5) was 13.8 µM (inactive), the GI50 (SK-OV-3) was 23.1 µM (inactive) and the GI50 (SN12C) was 27.5 µM (inactive). For the same molecule, the GI50 (SNB-19) was 31 µM (inactive), the GI50 (SNB-75) was 16.5 µM (inactive) and the GI50 (SR) was 5.27 µM (inactive). For the same molecule, the GI50 (SW-620) was 23.4 µM (inactive), the GI50 (T47D) was 19.4 µM (inactive) and the GI50 (TK-10) was 20 µM (inactive). For the same molecule, the GI50 (U-251) was 11.3 µM (inactive), the GI50 (UACC-257) was 27 µM (inactive) and the GI50 (UACC-62) was 13.2 µM (inactive). The GI50 (UO-31) was 20.7 µM (inactive).
